The test system of data set [1] is defibrinated sheep blood (red blood cells). Nature of the data set: Hemolysis assay. The data set is classed as cell-based. The note with it: 200 µg/mL compound, 20 h incubation at 37 °C with defibrinated sheep blood, PBS 0.002% Tween20, absorbance 415 nm, relative to 0.1% Triton X-100; n=3 technical replicates. The procedure:
Defibrinated sheep blood (Thermo Fisher Scientific) and a phosphate-buffered saline (PBS) buffer containing 0.002% Tween20 were used in this assay. The red blood cells were washed with buffer followed by centrifugation (400 g for 15 min at 4 °C). The red blood cells were then normalized to obtain a positive control read-out around 2.5 at 415 nm to stay in the linear range with the maximum sensitivity. A serial dilution of the compounds (200–1.56 µg/mL, 75 µL) was prepared in a 96-well plate. Each plate contained a positive control (0.1% Triton X-100 final concentration, 75 µL) and the negative control (buffer, 75 µL). After addition of normalized blood cells (75 µL), the plates were incubated for 20 h at 37 °C at 500 rpm. The plates were centrifuged (800× g for 5 min at room temperature). For the next step flat-bottom polystyrene plates were prepared with 100 µL buffer in each well. Aliquots of 25 µL supernatant from the centrifuged plates were then transferred to their respective wells in the flat-bottom plate. Absorbance values where measured at 415 nm and corrected for background (negative control) and transformed to a percentage hemolysis relative to the positive control.

Data set [2] relates to E. coli BW25113. Briefly: Checkerboard assay with erythromycin. The data set is classed as cell-based, Escherichia coli. The note with it: for MSCery: erythromycin concentration in the combination with the synergist giving the lowest FICi, E. coli BW25113; for MIC of the peptide (MICpep): synergist alone, from checkerboard with erythromycin; for MIC of the peptide (MICpep) / MSCpeptide, minimum synergistic concentration: E. coli BW25113, LB, 20 h 37 °C; for MSCpeptide, minimum synergistic concentration: synergist concentration in the combination with erythromycin giving the lowest FICi, OD600. As to the method:
(§1) All peptides were screened for antimicrobial activity against E. coli BW25113, E. coli ATCC25922, and E. coli W3110. A select group of the peptides was further tested against E. coli mcr-1, E. coli EQASmcr-1 (EQAS 2016 412016126), E. coli EQASmcr-2 (EQAS 2016 KP37), E. coli EQASmcr-3 (EQAS 2017 2013-SQ352), K. pneumoniae ATCC13883, P. aeruginosa ATCC27853, and A. baumannii ATCC17978. The antimicrobial assay was performed according to CLSI guidelines. Bacteria were plated out directly from their glycerol stocks on blood agar plates, incubated overnight at 37 °C, and then kept in the fridge. The blood agar plates were only used for 2 weeks and then replaced.
(§2) One colony from a blood agar plates was inoculated in Lysogeny Broth (LB) at 37 °C until a 0.5 optical density at 600 nm (OD600) was reached (compared to the sterility control of LB). The bacterial suspension was diluted in fresh LB to 2.0 × 10^6 CFU/mL. The serial dilutions were prepared in polypropylene microtiter plates: a stock of the test compounds was prepared with a 2x final concentration in LB. Moreover, 100 µL of the stock was added to the wells of the top row of which 50 µL was used for the serial dilution. The bottom row of each plate was used as the positive (50 µL of LB) and negative controls (100 µL of LB) (6 wells each). Furthermore, 50 µL of the 2.0 × 10^6 CFU/mL bacterial stock was added to each well except for the negative controls, adding up to a total volume of 100 µL per well. The plates were sealed with a breathable seal and incubated for 20 h at 37 °C and 600 rpm.
(§3) Two 96-well plates were required per compound. A serial dilution of the compound was performed on two plates from row A–G using with LB as medium. Row H was filled with 25 µL medium. On a separate plate a negative control (8 wells, 100 μL medium) was prepared. For all concentrations of antibiotic a specific stock was prepared. 25 µL medium was added to the 0 µg/mL antibiotic columns (plate I, column 1–3). Of each antibiotic stock 25 µL was added to three columns to obtain triplicates for every condition. Both plates contained 50 µL in each well to which 50 µL bacterial stock was added (see the protocol of the MIC assays) and the plates were sealed. After incubation for 20 h at 37 °C while shaking, the breathable seals were removed and the density of the bacterial suspensions measured at 600 nm (OD600) using a Tecan Spark plate reader. The OD600 values were transformed to a 2D gradient with the negative control as minimum and the positive control (wells G1, G2, and G3) as maximum in excel. The FICi was calculated using Equation (1) with a FICi ≤ 0.5 indicating synergy. FICi = (MSCa/MICa) + (MSCb/MICb),(1)
(§4) Calculation of the FICi: MSCa = concentration of the […] in combination with the antibiotic that results in the lowest FICi. MICa = MIC of the antibiotic without synergist (row G). MSCb = concentration of the synergist in combination with the antibiotic that results in the lowest FICi. MICb = MIC of the synergist itself (Column 1–3, plate I).

Data set [3] deals with E. coli BW25113. The data set is classed as cell-based, Escherichia coli. The settings on record: for FICi: BW25113, 20 h; for MSCrif: rifampicin concentration in the combination giving the lowest FICi; for MSCrif / MSCpep: E. coli BW25113; for MICpep: synergist alone, E. coli BW25113, from checkerboard with rifampicin; for MSCpep: synergist concentration in the combination with rifampicin giving the lowest FICi. As to the method: as §1, §2, §3, §4

The test system of a further data set is P. aeruginosa ATCC27853. Briefly: Checkerboard assay with rifampicin. It is filed as cell-based, Pseudomonas aeruginosa. As to the method: as §1, §2, §3, §4
Another data set deals with A. baumannii ATCC17978. Briefly: microbe, parasite or virus in culture. The data set is classed as cell-based, Acinetobacter baumannii. As to the method:
as §1, §2, §3, §4

The subject of the next data set is E. coli ATCC25922. The data set is classed as cell-based, Escherichia coli. The note with it: rifampicin without synergist; E. coli ATCC25922. The procedure:
as §1, §2, §3, §4

The test system of the next data set is E. coli mcr-1. It is filed as cell-based, Escherichia coli. The settings on record: rifampicin without synergist; E. coli mcr-1. The procedure: as §1, §2, §3, §4
For a further data set, the system named is K. pneumoniae ATCC13883. Nature of the data set: Checkerboard assay with rifampicin. The data set is classed as cell-based, Klebsiella pneumoniae. The procedure: as §1, §2, §3, §4
The subject of data set [4] is E. coli BW25113. Briefly: microbe, parasite or virus in culture. It is filed as cell-based, Escherichia coli. The procedure:
as §1, §2, §3, §4

Where “and” joins values, the source holds several entries; their conditions need not be identical. Equal values may be shown once. Read-outs that look alike come from different tables or passages of the source. Square brackets hold non-standard residues; d marks the D form. Peptide text beside a SMILES is read from it. Bounds are passed on as bounds.

The values that follow come from article PMC8037310, “Thrombin-Derived Peptides Potentiate the Activity of Gram-Positive-Specific Antibiotics against Gram-Negative Bacteria” (Molecules, 2021).

For the compound `CC[C@@H](C)[C@@H](NC(=O)[C@H](NC(=O)[C@@H](CCCCN)NC(=O)[C@@H](CCC(N)=O)NC(=O)[C@H](NC(=O)[C@@H](Cc1c[nH]c2ccccc12)NC(=O)[C@@H](CCCCN)NC(=O)[C@@H](CCCCN)NC(=O)[C@@H](CC(C)C)NC(=O)[C@@H](CCCNC(=N)N)NC(=O)[C@@H](Cc1ccccc1)NC(=O)[C@H](N)C(C)C)[C@H](C)CC)C(C)C)C(N)=O` [peptide 20] (H-[dV][dF][dR][dL][dK][dK][dW][dI][dQ][dK][dV][dI]-NH2), in data set [1], the Hemolysis was 3.2% and 3%. For the same compound, in the data set on E. coli BW25113 [2], the MSCery amounted to 3.125 µg/mL; the “MIC of the peptide (MICpep)” value is on record as 6.25 µg/mL; the “MSCpeptide, minimum synergistic concentration” value amounted to 3.13 µg/mL. Moreover, in the data set on E. coli BW25113 [3], the FICi turned out to be 0.2813, the MSCrif was determined as 0.25 µg/mL, the MICpep stood at 12.5 µg/mL and the MSCpep turned out to be 3.125 µg/mL.
On to `CC[C@H](C)[C@H](N)C(=O)N[C@H](C(=O)N[C@@H](CCCCN)C(=O)N[C@@H](CCC(N)=O)C(=O)N[C@H](C(=O)N[C@@H](Cc1c[nH]c2ccccc12)C(=O)N[C@@H](CCCCN)C(=O)N[C@@H](CCCCN)C(=O)N[C@@H](CC(C)C)C(=O)N[C@@H](CCCNC(=N)N)C(=O)N[C@@H](Cc1ccccc1)C(=O)N[C@H](C(N)=O)C(C)C)[C@@H](C)CC)C(C)C` [peptide 21] (H-IVKQIWKKLRFV-NH2), for which, in [1], the Hemolysis is 2.2% and 2%. Moreover, in the data set with E. coli BW25113 [2], the MSCery was 25 µg/mL; the “MIC of the peptide (MICpep)” value is above 200 µg/mL; the “MSCpeptide, minimum synergistic concentration” value came out at 50 µg/mL. Further, the FICi with E. coli BW25113 [2] (with erythromycin vs E. coli BW25113, synergy defined as FICi ≤ 0.5) was found to be 0.2500. In the data set with E. coli BW25113 [3], the FICi came out at 0.3750, the MSCrif worked out at 2 µg/mL, the MICpep was above 200 µg/mL and the MSCpep amounted to 50 µg/mL.
Consider `CC[C@@H](C)[C@@H](N)C(=O)N[C@@H](C(=O)N[C@H](CCCCN)C(=O)N[C@H](CCC(N)=O)C(=O)N[C@@H](C(=O)N[C@H](Cc1c[nH]c2ccccc12)C(=O)N[C@H](CCCCN)C(=O)N[C@H](CCCCN)C(=O)N[C@H](CC(C)C)C(=O)N[C@H](CCCNC(=N)N)C(=O)N[C@H](Cc1ccccc1)C(=O)N[C@@H](C(N)=O)C(C)C)[C@H](C)CC)C(C)C` [peptide 22] (H-[dI][dV][dK][dQ][dI][dW][dK][dK][dL][dR][dF][dV]-NH2), for which the Hemolysis in [1] was 3.2% and 3%. In addition, in the data set with E. coli BW25113 [2], the MSCery turned out to be 6.25 µg/mL; the “MIC of the peptide (MICpep)” value amounted to 100 µg/mL; the “MSCpeptide, minimum synergistic concentration” value is 6.25 µg/mL. Moreover, in the data set with E. coli BW25113 [3], the FICi is 0.1406, the MSCrif stood at 0.25 µg/mL, the MICpep turned out to be 50 µg/mL and the MSCpep worked out at 6.25 µg/mL.
On to `CO[C@H]1/C=C/O[C@@]2(C)Oc3c(C)c(O)c4c(O)c(c(/C=N/N5CCN(C)CC5)c(O)c4c3C2=O)NC(=O)/C(C)=C\C=C\[C@H](C)[C@H](O)[C@@H](C)[C@@H](O)[C@@H](C)[C@H](OC(C)=O)[C@@H]1C` [rifampicin, reference compound], for which the MIC was 16 µg/mL with P. aeruginosa ATCC27853 (Pseudomonas aeruginosa, ATCC27853, read-out: MIC of rifampicin (MICrif)); 2 µg/mL in the data set on A. baumannii ATCC17978 (Acinetobacter baumannii, ATCC17978, read-out: MIC of rifampicin (MICrif)); 32 µg/mL with K. pneumoniae ATCC13883 (Klebsiella pneumoniae, ATCC13883, read-out: MIC of rifampicin (MICrif)). In addition, the “MIC of rifampicin (MICrif)” value in the data set on P. aeruginosa ATCC27853 (rifampicin without synergist, P. aeruginosa ATCC27853) is on record as 16 µg/mL; with A. baumannii ATCC17978 (rifampicin without synergist, A. baumannii ATCC17978), 2 µg/mL; in the data set on K. pneumoniae ATCC13883 (rifampicin without synergist, K. pneumoniae ATCC13883), 32 µg/mL. In addition, the MICrif with E. coli ATCC25922 is 4 µg/mL; in the data set on E. coli mcr-1 it was 12 µg/mL.
As for `CN[C@H](CC(C)C)C(=O)N[C@H]1C(=O)N[C@@H](CC(N)=O)C(=O)N[C@H]2C(=O)N[C@H]3C(=O)N[C@H](C(=O)N[C@H](C(=O)O)c4cc(O)cc(O)c4-c4cc3ccc4O)[C@H](O)c3ccc(c(Cl)c3)Oc3cc2cc(c3O[C@@H]2O[C@H](CO)[C@@H](O)[C@H](O)[C@H]2O[C@H]2C[C@](C)(N)[C@H](O)[C@H](C)O2)Oc2ccc(cc2Cl)[C@H]1O` [vancomycin, reference compound], the MIC with E. coli BW25113 [4] (Escherichia coli, BW25113, read-out: MIC of vancomycin (MICvanco)) was above 200 µg/mL. The “MIC of vancomycin (MICvanco)” value in the data set with E. coli BW25113 [4] (antibiotic without synergist, E. coli BW25113) was above 200 µg/mL.
